The values below come from patent US20220096511A1, “ANTIFUNGAL AGENTS WITH IMPROVED WATER SOLUBILITY” (priority 2019, published 2022).

One data set deals with Candida albicans. Nature of the data set: Minimum inhibitory concentration (MIC) testing, diffusion disc assay. It is filed as cell-based. Conditions: for Inhibition of Candida albicans (MIC): diffusion paper disc, overnight at 30° C., average of three experiments. How it is done: (§1) Minimum inhibitory concentration (MIC) testing was determined for nystatin ethanol amide along with comparative antifungal agents.
(§2) Nystatin (Solid) and amphotericin were dissolved in DMF in 1 mg/mL. Econazole nitrate and Nystatin ethanol amide (salt) were dissolved in PBS to achieve 1 mg/mL.
(§3) Antibiotic medium 19 was sterilized in autoclave, after sterilization when the temperature lowered to 45° C. and 1 mL from spore suspension was added. 8 mL from this mixture dispensed to each petri dish.
(§4) On each dish 6 sterile diffusion paper disc were placed, 10 μL from each antibiotic were applied in 10, 15, 20, 25, 30, 35 μg/mL concentrations. Where MIC concentrations were below 10, lower concentrations were used: 2, 5, 7.5 μg/mL
(§5) The petri dishes were incubated overnight at 30° C. The MIC were determined as the lower concentration that inhibition could be visualized.
(§6) Observations. In this diffusion disc assay we measured the minimal concentration applied by each compound needed to inhibit the growth of C. albicans and A. niger. […] Amphotericin B inhibit the growth of C. albicans (16 μg/mL) similarly to Nystatin and Nystatin water soluble.

Another data set has as its system Aspergillus niger. The description is as above. It is filed as cell-based. Conditions: for MIC: Aspergillus niger, read-out: Inhibition of Aspergillus niger (MIC). How it is done: as §1, §2, §3, §4, §5, §6
The nature of the next data set: Endotoxin testing (LAL). Conditions: standard methods. How it is done: Endotoxin testing (LAL) was performed using standard methods and found to be <30 Eu/mg.
Another data set concerns hep2 cell line. Kind of data set: Toxicity: viability of hep2 cell line after incubation with the compound. It is filed as cell-based. Conditions: compared with nystatin. How it is done:
Toxicity: Toxicity was tested with hep2 cell line by checking their viability after incubation with the compound. The amount of the compound that corresponds to 50% cell viability is the maximum amount of compound that can be apply on to cell culture.

Another data set deals with microorganisms. Kind of data set: Potency testing, cylinder plate assay, method USP <81>. It is filed as cell-based. Conditions: for 1 mg. An excerpt: The terms “antifungal activity” or “potency,” these terms being used interchangeably, refer to the inhibitory effect of an antifungal agent on microorganisms under suitable conditions as measured using a standard analytical method, such as the methods established by the United States Pharmacopeial Convention (USP).
Potency testing is done using a cylinder plate assay using the methods described in U.S. Pharmacopeia, e.g., Pharmacopeial Forum, Vol. 36(6) [November-December 2010] <81> Antibiotics—Microbial Assays, USP 32 page 86 ff.
FIG. 5 is a photo showing the results of potency testing according to method USP/81 of the nystatin ethanol amide product.

Where [1] appears, read: diffusion paper disc, overnight at 30° C., average of three experiments.

In brackets after ≈: the same amount, converted by molar mass. Where two headings read alike, the source gives them in different places.

Regarding Polymixin B, the “Inhibition of Candida albicans (MIC)” value in the data set on Candida albicans is reported as “No inhibition”. Moreover, the “Inhibition of Aspergillus niger (MIC)” value in the data set with Aspergillus niger (setting [1]) is reported as “No inhibition”.

With `C[C@@H]1[C@H](O)[C@@H](C)/C=C/C=C/C=C/C=C/C=C/C=C/C=C/[C@H](O[C@@H]2O[C@H](C)[C@@H](O)[C@H](N)[C@@H]2O)C[C@@H]2O[C@](O)(C[C@@H](O)C[C@@H](O)[C@H](O)CC[C@@H](O)C[C@@H](O)CC(=O)O[C@H]1C)C[C@H](O)[C@H]2C(=O)O` [Amphotericin, amphotericin B], the minimum inhibitory concentration (MIC) in the data set on Aspergillus niger (setting [1]) is 31.5 µg/mL (≈ 34.1 µM).

For the compound Nystatin Methyl ester, the “Inhibition of Candida albicans (MIC)” value in the data set on Candida albicans is 30 µg/mL. Also, the “Inhibition of Aspergillus niger (MIC)” value is on record as “No inhibition” in the data set with Aspergillus niger (setting [1]) and “no observed inhibition” with Aspergillus niger (diffusion paper disc, overnight at 30° C., average of three experiments, listed as Nystatin methyl ester).

For `Clc1ccc(COC(Cn2ccnc2)c2ccc(Cl)cc2Cl)cc1` (stereo not drawn) [Econazole, Econazole nitrate], in the data set with Candida albicans, the “Inhibition of Candida albicans (MIC)” value is listed as “No inhibition”. In addition, the “Inhibition of Aspergillus niger (MIC)” value in the data set with Aspergillus niger (setting [1]) is on record as “No inhibition”.

With `C[C@@H]1[C@H](O)[C@@H](C)/C=C/C=C/CC/C=C/C=C/C=C/C=C/C(O[C@H]2O[C@H](C)[C@@H](O)[C@H](N)[C@@H]2O)CC2O[C@](O)(CC(O)C(O)CCC(O)CC(O)CC(O)CC(=O)O[C@H]1C)CC(O)C2C(=O)O` (stereo partly drawn) [Nystatin], the “Inhibition of Candida albicans (MIC)” value in the data set on Candida albicans worked out at 14 µg/mL. Besides, the “Inhibition of Aspergillus niger (MIC)” value in the data set on Aspergillus niger (setting [1]) is 22.5 µg/mL.

With `C[C@@H]1[C@H](O)[C@@H](C)/C=C/C=C/CC/C=C/C=C/C=C/C=C/[C@H](O[C@@H]2O[C@H](C)[C@@H](O)[C@H](N)[C@@H]2O)C[C@@H]2O[C@](O)(C[C@@H](O)[C@H](O)CC[C@@H](O)C[C@@H](O)C[C@@H](O)CC(=O)O[C@H]1C)C[C@H](O)[C@H]2C(=O)NCCO` [Nystatin ethanol amide], in the data set “Endotoxin testing (LAL)”, the “Endotoxin (LAL)” value is on record as below 30 Eu/mg. Moreover, the MIC in the data set with Candida albicans (Candida albicans, read-out: Inhibition of Candida albicans (MIC)) was 15.7 µg/mL (≈ 16.2 µM); in the data set with Aspergillus niger, 23.6 µg/mL (≈ 24.4 µM). In addition, the “Toxicity (amount of compound corresponding to 50% cell viability)” value in the data set on hep2 cell line is recorded as “the same or better than the unsalable nystatin”. Further, in the data set on microorganisms, the potency was 5500-6500 U.
